Test: xn = mol fraction of the nth substance listed
Conditions: 298.15 K, Liquid

CCCCCCCl [1-chlorohexane] + CN1CCCC1=O
mass density [kg/m3]
Conditions	x2 = 0.1003	x2 = 0.1988	x2 = 0.305	x2 = 0.4005	x2 = 0.5007	x2 = 0.5974	x2 = 0.7016	x2 = 0.8002	x2 = 0.8995
100 kPa	884.9	897	911	924.2	938.9	954.1	971.5	988.7	1007.4
500 kPa	885.2	897.3	911.2	924.5	939.2	954.4	971.7	988.9	1007.6
1000 kPa	885.5	897.6	911.6	924.9	939.5	954.6	972.1	989.2	1007.9
1500 kPa	886	898.1	912	925.3	939.9	955	972.4	989.5	1008.2
1900 kPa	–	–	912.3	–	–	–	–	–	–
2000 kPa	886.4	898.4	–	925.6	940.2	955.3	972.7	989.8	1008.4
2500 kPa	886.8	898.9	912.8	926	940.6	955.7	973	990.1	1008.7
3000 kPa	887.2	899.2	913.2	926.4	941	956	973.4	990.4	1009
3500 kPa	887.7	899.6	913.6	926.8	941.3	956.2	973.7	990.6	1009.3
4000 kPa	888	900	–	927.1	941.6	956.6	974	991	1009.6
4100 kPa	–	–	914	–	–	–	–	–	–
4500 kPa	888.4	900.4	914.3	–	942	956.9	974.3	991.2	1009.8
4600 kPa	–	–	–	927.5	–	–	–	–	–
4900 kPa	888.7	–	–	–	–	–	–	–	–
5000 kPa	–	900.8	914.6	927.8	942.3	957.3	974.6	991.5	1010.1
5500 kPa	889.2	901.2	915	928.2	942.7	957.6	974.8	991.8	1010.4
5900 kPa	889.6	–	–	–	–	–	–	–	–
6000 kPa	–	901.6	915.4	928.6	943	958	975.2	992.2	1010.7
6500 kPa	890.1	902	915.8	928.9	943.3	958.3	975.5	992.4	1011
7000 kPa	890.4	902.4	916.2	929.2	943.7	958.6	975.8	992.7	1011.2
7400 kPa	–	902.7	–	–	–	–	–	–	–
7500 kPa	890.8	–	916.6	929.6	944	958.9	976.1	993.1	1011.5
8000 kPa	891.2	903.1	917	929.9	944.3	959.2	976.4	993.3	1011.8
8400 kPa	891.6	–	917.2	–	–	–	–	–	–
8500 kPa	–	–	–	930.3	944.7	959.5	976.7	993.6	1012
8600 kPa	–	903.6	–	–	–	–	–	–	–
8900 kPa	892	–	–	–	945	959.8	–	–	–
9000 kPa	–	903.8	917.7	930.7	–	–	977	993.9	1012.3
9400 kPa	–	–	–	930.9	–	–	–	–	–
9500 kPa	892.4	904.2	918.1	–	945.3	960.1	977.3	994.2	1012.6
9900 kPa	–	–	–	–	–	–	977.7	–	–
10000 kPa	892.9	904.7	918.6	931.4	945.7	960.5	–	994.5	1012.9
10500 kPa	893.2	905.1	918.8	931.7	946	960.8	978	994.8	1013.2
11000 kPa	893.5	905.4	919.2	932.1	946.4	961.1	978.3	995.1	1013.5
11400 kPa	893.9	–	–	–	–	961.4	–	–	–
11500 kPa	–	905.8	919.6	932.4	946.8	–	978.6	995.4	1013.8
11900 kPa	–	–	–	–	947	–	978.9	–	–
12000 kPa	894.3	906.2	919.9	932.8	–	961.8	–	995.7	1014
12400 kPa	–	906.5	–	–	–	–	–	995.9	1014.2
12500 kPa	894.7	–	920.2	933.1	947.3	962.2	–	–	–
12600 kPa	–	–	–	–	–	–	979.2	–	–
12900 kPa	–	–	–	–	–	–	979.4	–	–
13000 kPa	895.1	907.1	920.6	933.4	947.7	962.4	–	996.3	1014.5
13400 kPa	–	907.3	–	–	948	–	979.7	996.5	–
13500 kPa	895.5	–	921	933.8	–	962.6	–	–	1014.8
13900 kPa	–	–	–	–	948.3	–	–	–	–
14000 kPa	895.9	907.7	921.3	934.1	–	963.1	980.1	996.8	1015.1
14400 kPa	–	–	921.6	934.4	–	–	–	–	–
14500 kPa	896.3	908	–	–	948.6	963.4	980.3	997.1	1015.4
15000 kPa	896.6	908.4	922	934.8	949	963.7	980.7	997.4	1015.6
15400 kPa	896.9	–	–	–	–	–	–	–	–
15500 kPa	–	908.7	922.3	935.1	949.3	964	981	997.6	1015.8
15900 kPa	–	–	–	–	–	964.2	–	–	–
16000 kPa	897.4	909	922.7	935.4	949.6	–	981.3	–	1016.1
16100 kPa	–	–	–	–	–	–	–	998	–
16500 kPa	897.7	909.4	923	935.7	949.9	964.6	981.5	998.2	1016.4
16900 kPa	–	909.7	–	–	–	964.8	–	–	1016.6
17000 kPa	898	–	923.4	936	950.2	–	981.8	998.4	–
17400 kPa	–	–	–	–	950.5	–	982	–	–
17500 kPa	898.4	910.1	923.6	–	–	965.1	–	998.8	1016.9
17600 kPa	–	–	–	936.5	–	–	–	–	–
18000 kPa	898.8	910.5	924	936.7	950.8	965.4	982.3	999	1017.1
18400 kPa	–	–	–	937	951.1	–	–	–	–
18500 kPa	899.1	910.9	924.3	–	–	965.7	982.7	999.2	–
18700 kPa	–	–	–	–	–	–	–	–	1017.5
19000 kPa	899.5	911.3	924.7	937.4	951.5	966	983	999.6	1017.8
19500 kPa	899.8	911.6	925	937.8	951.8	966.3	983.3	999.8	1017.9
20000 kPa	900.3	912	925.4	938.2	952.2	966.7	983.8	1000.2	1018.3

— the NIST ThermoML archive (doi:10.1021/je7003758)
